Test results reported in publication PMC6199744, “Development of Chemical Proteomics for the Folateome and Analysis of the Kinetoplastid Folateome” (ACS Infectious Diseases, 2018).
Read-outs that look alike come from different tables or passages of the source.

Tests used:
Assay type in all cases: binding
[1] = biological target: T1, HeLa cell extract proteins (Homo sapiens, UniProt P33991)
T1 construct: endogenous in cells; host or cells: HeLa cell extract
T1 sequence (P33991 1-863): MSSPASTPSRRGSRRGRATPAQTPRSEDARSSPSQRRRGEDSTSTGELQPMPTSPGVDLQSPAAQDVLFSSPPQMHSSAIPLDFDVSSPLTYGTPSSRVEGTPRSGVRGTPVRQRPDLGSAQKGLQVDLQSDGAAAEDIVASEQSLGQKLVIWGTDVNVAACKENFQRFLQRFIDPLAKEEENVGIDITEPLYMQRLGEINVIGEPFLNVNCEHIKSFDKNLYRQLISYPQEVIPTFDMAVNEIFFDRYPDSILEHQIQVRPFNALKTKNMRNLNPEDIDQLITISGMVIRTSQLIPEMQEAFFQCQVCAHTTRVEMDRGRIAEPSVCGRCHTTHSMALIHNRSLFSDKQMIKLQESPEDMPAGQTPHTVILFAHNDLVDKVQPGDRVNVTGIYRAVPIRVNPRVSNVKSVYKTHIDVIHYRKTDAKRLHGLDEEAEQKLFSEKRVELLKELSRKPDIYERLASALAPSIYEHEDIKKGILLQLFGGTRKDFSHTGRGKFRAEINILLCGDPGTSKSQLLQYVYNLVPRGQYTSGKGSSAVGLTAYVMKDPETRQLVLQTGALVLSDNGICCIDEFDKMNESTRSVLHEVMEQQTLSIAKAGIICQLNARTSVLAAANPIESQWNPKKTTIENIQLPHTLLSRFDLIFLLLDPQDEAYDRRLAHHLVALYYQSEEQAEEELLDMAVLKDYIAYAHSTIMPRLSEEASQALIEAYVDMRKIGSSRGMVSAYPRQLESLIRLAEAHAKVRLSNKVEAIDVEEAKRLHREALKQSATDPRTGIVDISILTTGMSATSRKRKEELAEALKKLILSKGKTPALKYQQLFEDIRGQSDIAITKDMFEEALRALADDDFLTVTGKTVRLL

[2] = biological target: T2, HeLa cell extract proteins (Homo sapiens, UniProt P61981)
T2 construct: endogenous in cells; host or cells: HeLa cell extract
T2 sequence (P61981 1-247): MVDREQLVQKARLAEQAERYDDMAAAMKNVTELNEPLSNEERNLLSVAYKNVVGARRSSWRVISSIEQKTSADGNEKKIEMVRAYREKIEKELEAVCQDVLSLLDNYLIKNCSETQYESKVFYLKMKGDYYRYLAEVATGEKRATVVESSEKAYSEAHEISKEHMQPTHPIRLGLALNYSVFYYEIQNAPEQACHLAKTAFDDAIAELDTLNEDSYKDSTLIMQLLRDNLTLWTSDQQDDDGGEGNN

[3] = biological target: T3, HeLa cell extract proteins (Homo sapiens, UniProt Q9NVI1)
T3 construct: endogenous in cells; host or cells: HeLa cell extract
T3 sequence (Q9NVI1 1-1328): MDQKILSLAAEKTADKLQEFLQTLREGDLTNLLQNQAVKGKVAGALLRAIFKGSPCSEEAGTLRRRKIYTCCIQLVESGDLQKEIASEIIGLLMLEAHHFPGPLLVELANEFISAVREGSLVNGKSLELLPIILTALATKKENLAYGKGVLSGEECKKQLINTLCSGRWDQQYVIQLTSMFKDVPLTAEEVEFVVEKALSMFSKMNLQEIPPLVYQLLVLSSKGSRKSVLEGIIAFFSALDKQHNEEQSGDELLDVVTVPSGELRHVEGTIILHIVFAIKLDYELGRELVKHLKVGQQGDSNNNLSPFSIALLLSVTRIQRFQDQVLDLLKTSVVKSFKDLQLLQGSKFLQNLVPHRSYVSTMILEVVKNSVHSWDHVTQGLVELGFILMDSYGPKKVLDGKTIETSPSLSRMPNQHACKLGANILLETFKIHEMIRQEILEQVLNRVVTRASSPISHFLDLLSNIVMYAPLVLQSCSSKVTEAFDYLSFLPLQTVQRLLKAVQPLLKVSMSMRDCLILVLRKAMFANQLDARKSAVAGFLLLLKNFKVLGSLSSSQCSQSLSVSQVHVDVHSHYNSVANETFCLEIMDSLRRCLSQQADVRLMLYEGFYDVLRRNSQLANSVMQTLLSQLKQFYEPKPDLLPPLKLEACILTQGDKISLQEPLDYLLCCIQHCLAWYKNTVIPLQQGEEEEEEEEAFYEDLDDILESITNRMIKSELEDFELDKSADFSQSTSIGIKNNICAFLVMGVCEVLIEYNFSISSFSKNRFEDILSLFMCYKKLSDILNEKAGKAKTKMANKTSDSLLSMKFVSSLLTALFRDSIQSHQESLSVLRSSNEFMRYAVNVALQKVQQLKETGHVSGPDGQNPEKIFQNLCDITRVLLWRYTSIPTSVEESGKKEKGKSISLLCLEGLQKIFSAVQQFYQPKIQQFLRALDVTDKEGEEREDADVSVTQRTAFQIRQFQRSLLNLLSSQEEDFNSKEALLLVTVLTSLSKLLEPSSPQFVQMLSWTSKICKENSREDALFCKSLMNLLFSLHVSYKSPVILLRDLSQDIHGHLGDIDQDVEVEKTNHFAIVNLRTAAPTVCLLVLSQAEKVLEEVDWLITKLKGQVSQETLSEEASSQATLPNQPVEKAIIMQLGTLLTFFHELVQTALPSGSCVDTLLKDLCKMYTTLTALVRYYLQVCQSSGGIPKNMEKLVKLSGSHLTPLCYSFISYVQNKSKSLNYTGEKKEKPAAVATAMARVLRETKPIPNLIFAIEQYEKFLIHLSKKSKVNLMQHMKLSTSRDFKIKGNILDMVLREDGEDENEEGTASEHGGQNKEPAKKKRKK

[4] = HeLa, protein YWHAG (14-3-3 PROTEIN GAMMA.)

Row | SMILES | fold changes relative to vehicle control ([1]; protein MCM4, HeLa) | fold changes relative to vehicle control [2, 4] [fold] | fold changes relative to vehicle control ([3]; protein FANCI, HeLa) | fold changes relative to vehicle control ([2]; protein YWHAG, HeLa) | fold changes relative to vehicle control ([3]; HeLa, protein FANCI) | fold changes relative to vehicle control [1] | fold changes relative to vehicle control [2] | fold changes relative to vehicle control [3]
1 | Nc1nc2cccc(-c3ccccc3)c2n1Cc1ccc(Cl)c(Cl)c1 [compound 3] | 0.9 | 0.97 | 1.19 |  |  |  |  | 
2 | CCCCCCOc1ccc(Cc2cnc(N)nc2N)cc1 [compound 1] | 1.11 | 1.45 | 1 |  |  |  |  | 
3 | NCCCNc1ccc(C(=O)NC(CCC(=O)O)C(=O)O)cc1 (stereo not drawn) [compound 7] | 0.93 |  |  | 0.91 | 1.09 |  |  | 
4 | CCCCCCOc1cccc(Cc2cnc(N)nc2N)c1 [compound 2] | 1.59 | 2.09 | 1.02 |  |  |  |  | 
5 | NCCOCCOCC(=O)Nc1nc2ncc(CNc3ccc(C(=O)NC(CCC(=O)O)C(=O)O)cc3)nc2c(=O)[nH]1 (stereo not drawn) [compound 6] | 1.08 |  |  | 1.26 | 1.11 |  |  | 
6 | Nc1nc2[nH]cc(CCc3ccc(C(=O)N[C@@H](CCC(=O)O)C(=O)O)cc3)c2c(=O)[nH]1 [PTX, pemetrexed] |  |  |  |  |  | 0.96 | 1.09 | 1.04
7 | Nc1nc2c(c(=O)[nH]1)N(C=O)C(CNc1ccc(C(=O)N[C@@H](CCC(=O)O)C(=O)O)cc1)CN2 (stereo partly drawn) [LEU, leucovorin] | 0.87 |  |  | 1.02 | 0.87 |  |  | 
